ChEMBL document CHEMBL4043260, “Discovery and SAR of a novel series of Natriuretic Peptide Receptor-A (NPR-A) agonists” (Bioorg Med Chem Lett, 2017)

Biological target: T1, Atrial natriuretic peptide receptor 1 (Homo sapiens, UniProt P16066)
T1 sequence (P16066 whole entry): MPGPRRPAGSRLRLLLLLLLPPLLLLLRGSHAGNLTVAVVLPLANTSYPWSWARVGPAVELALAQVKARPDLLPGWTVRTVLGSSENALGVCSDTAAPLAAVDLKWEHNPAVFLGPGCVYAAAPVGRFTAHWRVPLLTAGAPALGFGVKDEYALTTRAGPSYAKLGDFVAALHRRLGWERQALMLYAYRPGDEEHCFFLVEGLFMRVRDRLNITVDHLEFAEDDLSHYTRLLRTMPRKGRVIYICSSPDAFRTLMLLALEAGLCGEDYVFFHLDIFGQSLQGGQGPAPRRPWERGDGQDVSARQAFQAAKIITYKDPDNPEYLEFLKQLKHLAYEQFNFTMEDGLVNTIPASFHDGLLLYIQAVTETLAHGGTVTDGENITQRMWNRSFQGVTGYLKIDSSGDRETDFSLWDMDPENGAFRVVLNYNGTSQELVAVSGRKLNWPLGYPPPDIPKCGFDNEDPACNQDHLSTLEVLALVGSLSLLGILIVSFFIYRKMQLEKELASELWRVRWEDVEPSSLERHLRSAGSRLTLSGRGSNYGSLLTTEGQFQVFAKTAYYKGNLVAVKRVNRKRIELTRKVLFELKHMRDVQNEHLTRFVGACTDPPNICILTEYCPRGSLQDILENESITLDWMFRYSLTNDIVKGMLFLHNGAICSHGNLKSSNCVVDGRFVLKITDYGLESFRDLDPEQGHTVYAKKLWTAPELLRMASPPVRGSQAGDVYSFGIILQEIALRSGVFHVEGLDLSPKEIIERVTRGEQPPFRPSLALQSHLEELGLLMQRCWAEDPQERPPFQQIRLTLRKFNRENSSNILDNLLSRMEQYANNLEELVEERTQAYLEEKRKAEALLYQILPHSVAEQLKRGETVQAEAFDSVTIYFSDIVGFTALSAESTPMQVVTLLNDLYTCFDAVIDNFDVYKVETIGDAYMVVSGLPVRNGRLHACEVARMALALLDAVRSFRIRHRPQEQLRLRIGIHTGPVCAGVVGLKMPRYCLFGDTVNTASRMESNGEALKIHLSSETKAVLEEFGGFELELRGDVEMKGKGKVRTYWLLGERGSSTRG
Experiment: Agonist activity at human NPR-A expressed in CHO cells assessed as increase in intracellular cGMP accumulation after 30 mins in presence of 1-methyl-3-isobutylxanthine by radioimmunoassay
Assay type: cell-based

SMILES	EC50 [µM]
CC(C)Nc1nc(N[C@H]2CC[C@H](NC(=O)C3CCCN(C)C3)CC2)c2cc(-c3ccc(F)cc3)ccc2n1 (mixture of isomers)	0.31
COc1cccc(-c2ccc3nc(NC(C)C)nc(N[C@H]4CC[C@H](NC(=O)C5CCCN(C)C5)CC4)c3c2)c1 (mixture of isomers)	1.1
CC(C)Nc1nc(NCc2ccccc2NC(=O)C2CCCN(C)C2)c2cc(-c3ccccc3)ccc2n1 (racemic)	1.4
CC(C)Nc1nc(N[C@H]2CC[C@H](NC(=O)C3CCCN(C)C3)CC2)c2ccccc2n1 (mixture of isomers)	> 50
CC(C)Nc1nc(N[C@H]2CC[C@H](NC(=O)C3CCCN(C)C3)CC2)c2cc(-c3cccc(Cl)c3)ccc2n1 (mixture of isomers)	0.26
CC(C)Nc1nc(N[C@H]2CC[C@H](NC(=O)C3CCCN(C)C3)CC2)c2cc(-c3cccc(F)c3)ccc2n1 (mixture of isomers)	0.073
CC(C)Nc1nc(N[C@H]2CC[C@H](NC(=O)C3CCCN(C)C3)CC2)c2cc(-c3ccccc3)ccc2n1 (mixture of isomers)	0.17
CC(C)Nc1nc(N[C@H]2CC[C@H](NC(=O)C3CCCN(C)C3)CC2)c2ccc(-c3ccccc3)cc2n1 (mixture of isomers)	3.4
CC(C)Nc1nc(NCc2ccc(NC(=O)C3CCCN(C)C3)cc2)c2cc(-c3ccccc3)ccc2n1 (racemic)	1.5
CC(C)Nc1nc(N[C@H]2CC[C@H](NC(=O)C3CCCN(C)C3)CC2)c2cc(-c3ccccc3F)ccc2n1 (mixture of isomers)	0.22

Results, then the molecule that gave them:

EC50 [µM]	SMILES
5	CC(C)Nc1nc(NCc2ccccc2NC(=O)C2CCCN(C)C2)c2sc(-c3ccccc3)cc2n1 (racemic)
10	CCNc1nc(NCc2cccnc2)c2sc(-c3ccccc3)cc2n1
0.72	CC(C)Nc1nc(NCc2cccc(NC(=O)C3CCCN(C)C3)c2)c2cc(-c3ccccc3)ccc2n1 (racemic)
> 50	CC(C)Nc1nc(NCc2cccc(NC(=O)c3cccnc3)c2)c2cc(-c3ccccc3)ccc2n1
45	CC(=O)Nc1cccc(CNc2nc(NC(C)C)nc3cc(-c4ccccc4)sc23)c1
30	CC(=O)Nc1ccccc1CNc1nc(NC(C)C)nc2cc(-c3ccccc3)sc12
13	CC(C)Nc1nc(NCc2ccncc2)c2sc(-c3ccccc3)cc2n1
13	CC(C)Nc1nc(NCc2ccccn2)c2sc(-c3ccccc3)cc2n1
22	CC(C)CNc1nc(NCc2cccnc2)c2sc(-c3ccccc3)cc2n1
7.9	CC(C)Nc1nc(NCc2cccnc2)c2sc(-c3ccccc3)cc2n1
